Measured values as given in PubChem BioAssay AID1963443 (Molecular Pharmacology Branch, DTP, NCI, 2024).

Test system: MDA-MB-231 complex spheroids, growth inhibition
Assay: Anticancer human tumor MDA-MB-231 cell line growth inhibition [Asc];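 also: spheroids exposed to compounds for 7 days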
Conditions: for IC50: curve of first compound; for viability, T/C: stronger effect = lower value; active = viability on the fitted dose curve at most 10% of control; inactive = the rest
Procedure: Multicellular complex tumor spheroid response to apoptosis pathway targeting inhibitors Alrizomadlin, Pelcitoclax, and Dasminapant in combination with a variety of drugs and investigational agents in selected tumor cell lines
The MDM2 inhibitor alrizomadlin, the Bcl-2/Bcl-xL inhibitor pelcitoclax, and the IAPs inhibitor dasminapant were evaluated both individually and in combination with standard of care and investigational anticancer small molecules within a complex spheroid model of solid tumors. . Complex spheroids include a stromal component modeled by human endothelial cells (HUVEC) and fibroblasts modeled by human mesenchymal stem cells (MSCs). The concentration ranges selected for each drug and investigational agent were based upon clinically achievable concentrations if the clinical Cmax of the agent was known.
Compounds. The drugs and investigational agents: alrizomadlin (APG-115; NSC831270), pelcitoclax (APG-1252; NSC835773), dasminapant (APG-1387;NSC834197), TAK-243 (NSC785004), copanlisib (NSC809693), olaparib (NSC753686), talazoparib (NSC767125), cobimetinib (NSC 768068), eltanexor (KPT-8602, NSC 794443), abemaciclib (NSC 768073), sotorasib (NSC818433), adagrasib (NSC 831453), MRTX-1133 (NSC 836407), Iadademestat (ORY1001, NSC 806812), and RMC-4630 (NSC839698), were obtained from the NCI Developmental Therapeutics Program Chemical Repository. The FDA-approved anticancer drug set is available from the Developmental Therapeutics Program at https://dtp.cancer.gov/organization/dscb/obtaining/available plates.htm. […] The stock solutions were prepared in dimethyl sulfoxide (DMSO, Sigma-Aldrich, St. Louis, MO, cat. D2650) at 800-fold the tested concentration and stored at -70 degrees C prior to their use. All drugs and investigational agents were tested over a range starting from a high concentration at or near the clinical Cmax and decreasing in half-log increments. If the clinical Cmax for an agent had not been determined, the highest concentration tested was 10 microM.
The patient-derived cancer (PDC) cell lines include five colon adenocarcinomas: 186277-243-T-J2-PDC, 616215-338-R-J1-PDC, 439559-082-T-J2-PDC, 463943-066-T-J2-PDC, and 519858-162-T-J1-PDC; three pancreatic carcinomas: 323965-272-R-J2-PDC, 521955-158-R6-J3-PDC, and 521955-158-R2-J5-PDC; two uterine sarcomas: 327498-152-R-J2-PDC and 993429-296-R-J1-PDC; two rhabdomyosarcomas: 755483-174-R-J1-PDC and 772245-204-R-J1-PDC; two soft tissue sarcomas: 126254-015-R-J1-PDC and 494315-158-R-J1-PDC; two malignant fibrous histiocytomas: 317291-083-R-J1-PDC and 596521-263-R-J1-PDC; two breast carcinomas: 171881-019-R-J1-PDC and 885512-296-R-J2-PDC; and one ovarian carcinoma: 6556581-035-R-J-PDC were obtained from the NCI PDMR, (https://pdmr.cancer.gov). The established cell lines HSSY-2 synovial sarcoma (RRID:CVCL 8719), SYO-1 synovial sarcoma (RRID:CVCL_7146), MPNST malignant peripheral neural sheath tumor were obtained from the Sloan Kettering Institute. The following established cell lines were purchased from the American Type Culture Collection (ATCC, Manassas, VA), Sor the received from the NCI repository:, PANC-1 pancreatic carcinoma (CRL-1469, RRID:CVCL_0480), OVCAR-5 ovarian carcinoma (RRID:CVCL_1628), OVCAR-8 ovarian carcinoma (RRID:CVCL_1629), , MCF-7 breast carcinoma (CRL-12584, RRID:CVCL_0031), MDA-MB-231 breast carcinoma (CRL-12532, RRID:CVCL_0062), NCI-H1876 small cell lung carcinoma (CRL-5902, RRID:CVCL_1503), NCI-H510A small cell lung carcinoma (HTB-184, RRID:CVCL_1565), NCI-H1417 (CRL-5869, RRID:CVCL_1469), and NCI-H196 small cell lung carcinoma (CRL-5823, RRID:CVCL_1509). Dr. Peter Houghton (Greehey Children's Cancer Research Institute, University of Texas Health Science Center, San Antonio, TX) provided Rh-18 rhabdomyosarcoma (RRID:CVCL_1659). Pooled donor human umbilical vein endothelial cells (HUVEC, Lonza, cat. CC-2519) and human mesenchymal stem cells (hMSC, Lonza, cat. PT-2501) were purchased from Lonza (Walkersville, MD).
Cell Culture. […]

[1] = second compound 0.03 µM, first compound 0.00316 µM
[2] = second compound 0.03 µM, first compound 0.01 µM
[3] = second compound 0.03 µM, first compound 0.0316 µM
[4] = second compound 0.03 µM, first compound 0.1 µM
[5] = second compound 0.0949 µM, first compound 0.00316 µM
[6] = second compound 0.0949 µM, first compound 0.01 µM
[7] = second compound 0.0949 µM, first compound 0.0316 µM
[8] = second compound 0.0949 µM, first compound 0.1 µM
[9] = second compound 0.3 µM, first compound 0.00316 µM
[10] = second compound 0.3 µM, first compound 0.01 µM
[11] = second compound 0.3 µM, first compound 0.0316 µM
[12] = second compound 0.3 µM, first compound 0.1 µM
[13] = second compound 0.949 µM, first compound 0.00316 µM
[14] = second compound 0.949 µM, first compound 0.01 µM
[15] = second compound 0.949 µM, first compound 0.0316 µM
[16] = second compound 0.949 µM, first compound 0.1 µM
[17] = second compound 3 µM, first compound 0.00316 µM
[18] = second compound 3 µM, first compound 0.01 µM
[19] = second compound 3 µM, first compound 0.0316 µM
[20] = second compound 3 µM, first compound 0.1 µM

CCN1CCN(Cc2ccc(Nc3ncc(F)c(-c4cc(F)c5nc(C)n(C(C)C)c5c4)n3)nc2)CC1 + CCN1C(C(=O)NC23CCC(C(=O)O)(CC2)CC3)C(c2cccc(Cl)c2F)C2(C(=O)Nc3cc(Cl)ccc32)C12CCCCC2
inactive: viability, T/C [1] 102% | viability, T/C [2] 94.3% | viability, T/C [3] 76.6% | viability, T/C [4] 59% | viability, T/C (second compound 0.03 µM, first compound 0.316 µM) 49.8% | viability, T/C (second compound 0.03 µM, first compound 1 µM) 46.6% | viability, T/C [5] 109% | viability, T/C [6] 98.8% | viability, T/C [7] 79.7% | viability, T/C [8] 61.8% | viability, T/C (second compound 0.0949 µM, first compound 0.316 µM) 50.5% | viability, T/C (second compound 0.0949 µM, first compound 1 µM) 48.1% | viability, T/C [9] 103% | viability, T/C [10] 99.9% | viability, T/C [11] 86.9% | viability, T/C [12] 67% | viability, T/C (second compound 0.3 µM, first compound 0.316 µM) 55% | viability, T/C (second compound 0.3 µM, first compound 1 µM) 52.7% | viability, T/C [13] 105% | viability, T/C [14] 101% | viability, T/C [15] 85.5% | viability, T/C [16] 67.2% | viability, T/C (second compound 0.949 µM, first compound 0.316 µM) 52.8% | viability, T/C (second compound 0.949 µM, first compound 1 µM) 53% | viability, T/C [17] 94.8% | viability, T/C [18] 86.6% | viability, T/C [19] 73.6% | viability, T/C [20] 54.5% | viability, T/C (second compound 3 µM, first compound 0.316 µM) 49.1% | viability, T/C (second compound 3 µM, first compound 1 µM) 52.6%
305 nM: IC50 (second compound 0.03 µM)
479 nM: IC50 (second compound 0.0949 µM)
> 1000 nM: IC50 (second compound 0.3 µM) | IC50 (second compound 0.949 µM) | IC50 (second compound 3 µM)

NC(=O)C(=Cn1cnc(-c2cc(C(F)(F)F)cc(C(F)(F)F)c2)n1)c1cncnc1 + CCN1C(C(=O)NC23CCC(C(=O)O)(CC2)CC3)C(c2cccc(Cl)c2F)C2(C(=O)Nc3cc(Cl)ccc32)C12CCCCC2
84.7 nM: IC50 (second compound 0.3 µM)
78.3 nM: IC50 (second compound 0.03 µM)
70.5 nM: IC50 (second compound 0.0949 µM)
84.5 nM: IC50 (second compound 0.949 µM)
67.4 nM: IC50 (second compound 3 µM)
inactive: viability, T/C (second compound 0.03 µM, first compound 0.000949 µM) 103% | viability, T/C (second compound 0.03 µM, first compound 0.003 µM) 92.8% | viability, T/C (second compound 0.03 µM, first compound 0.00949 µM) 82.4% | viability, T/C (second compound 0.03 µM, first compound 0.03 µM) 60% | viability, T/C (second compound 0.03 µM, first compound 0.0949 µM) 52.5% | viability, T/C (second compound 0.03 µM, first compound 0.3 µM) 23.6% | viability, T/C (second compound 0.0949 µM, first compound 0.000949 µM) 111% | viability, T/C (second compound 0.0949 µM, first compound 0.003 µM) 103% | viability, T/C (second compound 0.0949 µM, first compound 0.00949 µM) 90.4% | viability, T/C (second compound 0.0949 µM, first compound 0.03 µM) 62.6% | viability, T/C (second compound 0.0949 µM, first compound 0.0949 µM) 47.3% | viability, T/C (second compound 0.0949 µM, first compound 0.3 µM) 21.7% | viability, T/C (second compound 0.3 µM, first compound 0.000949 µM) 112% | viability, T/C (second compound 0.3 µM, first compound 0.003 µM) 102% | viability, T/C (second compound 0.3 µM, first compound 0.00949 µM) 87% | viability, T/C (second compound 0.3 µM, first compound 0.03 µM) 63.1% | viability, T/C (second compound 0.3 µM, first compound 0.0949 µM) 52.5% | viability, T/C (second compound 0.3 µM, first compound 0.3 µM) 25% | viability, T/C (second compound 0.949 µM, first compound 0.000949 µM) 117% | viability, T/C (second compound 0.949 µM, first compound 0.003 µM) 107% | viability, T/C (second compound 0.949 µM, first compound 0.00949 µM) 93.4% | viability, T/C (second compound 0.949 µM, first compound 0.03 µM) 66.9% | viability, T/C (second compound 0.949 µM, first compound 0.0949 µM) 50.4% | viability, T/C (second compound 0.949 µM, first compound 0.3 µM) 26.8% | viability, T/C (second compound 3 µM, first compound 0.000949 µM) 102% | viability, T/C (second compound 3 µM, first compound 0.003 µM) 94.2% | viability, T/C (second compound 3 µM, first compound 0.00949 µM) 79.4% | viability, T/C (second compound 3 µM, first compound 0.03 µM) 59.9% | viability, T/C (second compound 3 µM, first compound 0.0949 µM) 46.9% | viability, T/C (second compound 3 µM, first compound 0.3 µM) 31.6%

NC1CCC(NC2CC2c2ccccc2)CC1 (stereo not given) + CCN1C(C(=O)NC23CCC(C(=O)O)(CC2)CC3)C(c2cccc(Cl)c2F)C2(C(=O)Nc3cc(Cl)ccc32)C12CCCCC2
inactive: viability, T/C (second compound 0.03 µM, first compound 0.000316 µM) 91.2% | viability, T/C (second compound 0.03 µM, first compound 0.001 µM) 94.5% | viability, T/C [1] 93.4% | viability, T/C [2] 95.2% | viability, T/C [3] 91.8% | viability, T/C [4] 96.2% | viability, T/C (second compound 0.0949 µM, first compound 0.000316 µM) 101% | viability, T/C (second compound 0.0949 µM, first compound 0.001 µM) 103% | viability, T/C [5] 101% | viability, T/C [6] 101% | viability, T/C [7] 100% | viability, T/C [8] 102% | viability, T/C (second compound 0.3 µM, first compound 0.000316 µM) 102% | viability, T/C (second compound 0.3 µM, first compound 0.001 µM) 104% | viability, T/C [9] 101% | viability, T/C [10] 102% | viability, T/C [11] 102% | viability, T/C [12] 105% | viability, T/C (second compound 0.949 µM, first compound 0.000316 µM) 105% | viability, T/C (second compound 0.949 µM, first compound 0.001 µM) 105% | viability, T/C [13] 105% | viability, T/C [14] 105% | viability, T/C [15] 104% | viability, T/C [16] 106% | viability, T/C (second compound 3 µM, first compound 0.000316 µM) 90% | viability, T/C (second compound 3 µM, first compound 0.001 µM) 91% | viability, T/C [17] 89.8% | viability, T/C [18] 88.2% | viability, T/C [19] 87.5% | viability, T/C [20] 89.2%
> 100 nM: IC50 (second compound 0.03 µM) | IC50 (second compound 0.0949 µM) | IC50 (second compound 0.3 µM) | IC50 (second compound 0.949 µM) | IC50 (second compound 3 µM)
